From patent publication US10626092B2, “Polymorphic forms of 3-[(2-butyl-1-(2-diethylamino-ethyl)-1H-benzoimidazol-5-yl]-N-hydroxy-acrylamide and uses thereof” (MEI PHARMA, INC., priority 2016, dated 2020)
Structures can show the parent of a compound that is named as a salt.

What was measured:
Type in all cases: physicochemical
Thermocycling studies = settings: ethanol, absolute or extra dry; dihydrochloride monohydrate
Procedure: The suspensions were cycled between 5° C. and 50° C. followed by aging at 25° C. for 72 hours. […] Upon completion of the incubation time, the solids were collected, dried under ambient conditions and dried under deep vacuum before being analyzed by HT-XRPD. All the measured solids were exposed to accelerated ageing conditions (2 days at 40° C./70% RH) followed by re-analysis by HT-XRPD.

[1] = Competitive slurry conversion (thermodynamic stability) of Form 1 and Form 3; settings: one week slurry
Procedure: Approximately 50 mg of each solid form were solid dosed in a standard HPLC vial followed by solvent addition. The competitive slurry experiments were performed in ethanol/water mixtures and methanol/water mixtures within a water activity range of 0-0.2. Approximately 50 mg of each pracinostat dihydrochloride solid form 2.5 hydrate and monohydrate were solid dosed in 1.8 mL HPLC vials. Aliquots of 100 μL of the different water mixtures were added until about half of the amount of solid was in solution. […] Upon completion of the equilibration time, the solids were separated from the liquids by centrifugation. The solids were dried under ambient conditions (ambient) and dried under vacuum (vacuum) before HT-XRPD analysis. All solid samples were exposed to accelerated gaining conditions (40° C. and 70% RH) for two days (AAC). The water content in the liquid phase was determined Karl Fischer analysis.

Variable humidity XRPD = settings: variable humidity XRPD at 30° C.; dihydrochloride monohydrate
Excerpt: (§1) The analytical method is described herein.
as §1
For variable humidity and temperature experiments the ANSYCO HT chamber was used, installed within the D8 Advance system diffractometer (Bruker) designed with Brag-Brentano geometry and equipped with LynxEye solid state detector. The radiation used for collecting the data was CuKα1 (λ=1.54056 Å) monochromatized by germanium crystal. The material was placed on a fixed sample holder that was mounted inside the chamber.

[2] = Desolvation studies: equilibration at 125° C. in high boiling point solvents; settings: two days; for Form in Ambient AAC: then accelerated aging conditions
Procedure: Using solvent equilibration of hydrates in high boiling point solvents has been reported as a method to obtaining desolvated forms. […] The experiments were started with approximately 50 mg of material and 100 μL of solvent. After equilibration, the solids were isolated from the solutions by centrifugation. The solids were allowed to dry under ambient conditions before HT-XRPD analysis was performed. The wet solids were analyzed by HT-XRPD immediately to avoid hydration under ambient conditions or under vacuum.

solid form after thermocycling (Thermocycling studies): transformed into the anhydrous Form 9
water content of the solvent system at which the form is the most stable / obtained form ([1]; ethanol/water, 5° C. (below ambient), dihydrochloride monohydrate): below 2%
water content of the solvent system at which the form is the most stable form ([1]; ethanol/water, 50° C. (elevated temperatures), dihydrochloride monohydrate): 2-4%
water content of the solvent system at which the form is the most stable form ([1]; methanol/water, 5° C.): below 6%
relative humidity at which the form is physically stable (Variable humidity XRPD): 10-85 % RH
Form in Ambient ([2]; Anisole): Mono
Form in Ambient AAC ([2]; Anisole): 2.5
Form in Ambient ([2]; Cumene): Mono
Form in Ambient AAC ([2]; Cumene, dihydrochloride monohydrate): 2.5
Form in Ambient ([2]; N-Methyl-2-pyrrolidone, dihydrochloride monohydrate): No solids
Form in Ambient ([2]; p-Xylene): Mono
Form in Ambient AAC ([2]; p-Xylene): 2.5
SMILES: CCCCc1nc2cc(/C=C/C(=O)NO)ccc2n1CCN(CC)CC [Form 1, 3-[2-butyl-1-(2-diethylamino-ethyl)-1H-benzoimidazol-5-yl]-N-hydroxy-acrylamide dihydrochloride monohydrate]
